Read-outs that look alike come from different tables or passages of the source. Ends that are not written are not given here. Peptide text beside a SMILES is read from it.

In experiment [1] the target is T1, recombinant human urokinase receptor (truncated, soluble; suPAR) (Homo sapiens, UniProt Q03405).
T1 construct: expressed as a truncated, soluble molecule as described previously for mouse L-cells (Masucci et al., J Biol Chem (1991) 266:8655); made in house
The experiment can be described thus: 125I-ATF competition binding on immobilized soluble recombinant human urokinase receptor. The settings on record: synthesized peptide, read-out: Affinity.

Experiment [2] has as its target T2, substance P receptor ("SPR") (Homo sapiens, UniProt P25103).
T2 construct: expressed in transfected cells; host or cells: Sf9 insect cells
The experiment in a line: Recovery of phage on Sf9 cells expressing substance P receptor (control). As to conditions: phage displaying the peptide. The format is binding. As for the experimental part:
(§1) 3.) The phage selected in round 2 were reselected on SI9 cells expressing fluPAR (day 2 post-infection) as described for round 1 (2.8×10^10 phage on 10^6 St9 cells). The yield of binding phage from this round was 5.40% (1.5×10^9 pfu), indicating a substantial enrichment in binding phage. Sample phage from the urea eluate were cloned, and their DNAs isolated and sequenced. Binding was assayed against Sf9 cells expressing fluPAR, and Sf9 cells expressing substance P receptor ("SPR," as a control).

Experiment [3] addresses T3, full length huPAR ("fluPAR") (Homo sapiens, UniProt Q03405).
T3 construct: Sf9 cells expressing full length huPAR ("fluPAR", day 2 post infection); expressed in transfected cells; host or cells: Sf9 insect cells, infected (day 2 post infection)
The experiment in a line: Recovery of phage on Sf9 cells expressing full length huPAR. It counts as binding. On the procedure:
1.) 15 mer phage (2.5×10^10) prepared as described above were selected by coincubation with 10^6 Sf9 cells expressing full length huPAR ("fluPAR", day 2 post infection) at room temperature for 60 minutes in Grace's medium with 2% nonfat milk. Binding phage were eluted with 6M urea (pH 2.2), the pH neutralized by adding 2M Tris-HCl, and assayed. The yield of binding phage was 0.0013% (3.3×10^5 pfu). The phage were amplified on solid agar plates as plaques, eluted with Tris-buffered saline, and precipitated with polyethylene glycol.
as §1

Experiment [4] has as its system SaOS-2 osteosarcoma cell line. The settings on record: Rabbani et al.; cited from earlier work.
The next experiment concerns U937 cells. As to conditions: Rabbani et al.; cited from earlier work.
The next experiment has as its target uPAR (Homo sapiens, UniProt Q03405). As to conditions: Appella et al., cited from earlier work.
Setting [5] is: corrected to 100 pM ATF, 0.3 μg/mL suPAR conditions, corrections about 3 × from previous assay conditions.

T1 sequence (Q03405 23-299 limits assumed): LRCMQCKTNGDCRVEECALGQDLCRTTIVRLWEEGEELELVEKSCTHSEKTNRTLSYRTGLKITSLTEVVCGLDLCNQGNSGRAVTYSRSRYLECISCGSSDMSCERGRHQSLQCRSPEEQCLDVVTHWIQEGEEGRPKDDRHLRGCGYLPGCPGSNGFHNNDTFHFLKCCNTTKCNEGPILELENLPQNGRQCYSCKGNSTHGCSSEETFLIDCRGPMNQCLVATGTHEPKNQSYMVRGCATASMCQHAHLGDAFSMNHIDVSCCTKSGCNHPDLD
T3 sequence (Q03405 23-335): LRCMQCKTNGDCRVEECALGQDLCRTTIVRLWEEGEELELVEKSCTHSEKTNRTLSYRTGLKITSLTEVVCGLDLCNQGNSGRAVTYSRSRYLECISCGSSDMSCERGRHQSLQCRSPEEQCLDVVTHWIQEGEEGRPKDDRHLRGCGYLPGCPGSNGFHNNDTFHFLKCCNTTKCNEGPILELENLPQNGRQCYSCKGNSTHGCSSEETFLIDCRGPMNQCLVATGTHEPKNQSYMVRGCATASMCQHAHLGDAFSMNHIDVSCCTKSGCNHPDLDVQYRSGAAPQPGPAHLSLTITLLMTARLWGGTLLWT
Chain of uPAR (Q03405 23-335): as above
T2 sequence (P25103 whole entry, species assumed): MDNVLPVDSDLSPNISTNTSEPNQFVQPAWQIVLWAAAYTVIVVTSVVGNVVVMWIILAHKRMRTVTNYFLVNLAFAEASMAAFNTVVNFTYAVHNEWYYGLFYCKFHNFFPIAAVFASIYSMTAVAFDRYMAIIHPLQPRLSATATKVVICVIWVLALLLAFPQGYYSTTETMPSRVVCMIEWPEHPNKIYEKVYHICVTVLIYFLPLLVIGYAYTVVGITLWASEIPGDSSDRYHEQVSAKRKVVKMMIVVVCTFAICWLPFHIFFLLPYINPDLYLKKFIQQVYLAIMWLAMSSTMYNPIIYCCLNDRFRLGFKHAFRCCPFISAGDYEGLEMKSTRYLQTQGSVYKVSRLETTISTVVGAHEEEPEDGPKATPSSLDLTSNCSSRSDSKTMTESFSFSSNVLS

Regarding `CC(C)C[C@H](NC(=O)[C@H](CCCCN)NC(=O)[C@H](CO)NC(=O)[C@H](Cc1ccc(O)cc1)NC(=O)[C@H](CCC(N)=O)NC(=O)[C@@H](NC(=O)[C@H](CO)NC(=O)[C@H](CCC(=O)O)NC(=O)[C@H](C)N)C(C)C)C(=O)N[C@@H](Cc1c[nH]c2ccccc12)C(=O)N[C@@H](CCCCN)C(=O)N1CCC[C@H]1C(=O)N[C@@H](CC(N)=O)C(=O)N[C@H](C(=O)N[C@H](C(=O)N[C@@H](CC(C)C)C(=O)N[C@@H](C)C(N)=O)[C@@H](C)O)[C@@H](C)O` (H-AESVQYSKLWKPNTTLA-NH2), the Kd in experiment [1] (setting [5]) is over 50 µM.

As for `CC[C@H](C)[C@H](NC(=O)[C@H](Cc1c[nH]cn1)NC(=O)[C@H](CCCCN)NC(=O)[C@H](CC(=O)O)NC(=O)[C@H](Cc1c[nH]cn1)NC(=O)[C@H](Cc1c[nH]c2ccccc12)NC(=O)[C@H](CC(C)C)NC(=O)[C@H](CC(=O)O)NC(=O)[C@H](CCSC)NC(=O)[C@H](Cc1ccccc1)NC(=O)[C@H](CC(C)C)NC(=O)[C@@H](NC(=O)[C@H](CCC(=O)O)NC(=O)[C@H](C)N)[C@@H](C)O)C(=O)N[C@@H](CC(C)C)C(=O)N[C@@H](CC(C)C)C(=O)N[C@H](C(N)=O)[C@@H](C)O` (H-AETLFMDLWHDKHILLT-NH2), the Kd in experiment [1] (assay performed at 100 pM ATF, 0.3 μg/mL suPAR in 200 μL (starred values)) turned out to be 7 µM.

Turning to `CC[C@H](C)[C@H](NC(=O)[C@H](Cc1c[nH]c2ccccc12)NC(=O)[C@H](CCC(=O)O)NC(=O)[C@H](C)N)C(=O)N[C@H](C(=O)N[C@@H](CO)C(=O)N[C@@H](CO)C(=O)N1CCC[C@H]1C(=O)N1CCC[C@H]1C(=O)N[C@@H](CC(C)C)C(=O)N[C@H](C(=O)N[C@@H](CCC(N)=O)C(=O)N[C@@H](Cc1ccc(O)cc1)C(=O)N[C@@H](CC(C)C)C(=O)N[C@@H](Cc1c[nH]c2ccccc12)C(=O)NCC(=O)N[C@@H](Cc1ccccc1)C(N)=O)[C@@H](C)O)[C@@H](C)O` (H-AEWITSSPPLTQYLWGF-NH2), the Kd in experiment [1] (setting [5]) was determined as 10 µM.

For the compound `CC[C@H](C)[C@H](NC(=O)[C@@H](NC(=O)[C@H](CCC(N)=O)NC(=O)[C@@H]1CCCN1C(=O)[C@H](CCC(=O)O)NC(=O)[C@@H]1CCCN1C(=O)[C@H](CC(C)C)NC(=O)[C@H](Cc1c[nH]cn1)NC(=O)[C@H](CC(C)C)NC(=O)[C@H](CC(N)=O)NC(=O)[C@H](Cc1ccc(O)cc1)NC(=O)[C@H](Cc1ccccc1)NC(=O)[C@H](CO)NC(=O)[C@H](Cc1c[nH]c2ccccc12)NC(=O)[C@H](CCC(=O)O)NC(=O)[C@H](C)N)[C@@H](C)O)C(=O)N[C@@H](Cc1ccccc1)C(N)=O` (H-AEWSFYNLHLPEPQTIF-NH2), the Kd in experiment [1] (setting [5]) amounted to 5 µM.

Regarding “AECLNGGTAVSNKYFSNIHWCN [Positive control, residues 13-32 of the EGFlike domain of urokinase (not selected from library)]”, the “% Recovery SPR” value in experiment [2] is 0.008%. Further, the “% Recovery huPAR” value in experiment [3] (phage displaying the peptide, Sf9 cells expressing fluPAR) is 6.8%. Further, the “Specificity (uPAR/SPR)” value in experiment [3] (ratio of % recovery huPAR to SPR) was found to be 857.

On to “fucosylated EGF-like domain: fucosylated EGF-like domain (uPA4-43, produced by cleavage from pro-uPA) (LHQVPSNCDCLNGGT(fucose)CVSNKYFSNIHWCNCPKKFGGQHCE; not fully specified; cysteine pairing not given here; UniProt P00749 24-63, looked up, fragment)”, for which the mitogenic activity entry in experiment [4] was “mitogenic”; with U937 cells, “Neither fucosylated nor non-fucosylated EGF-like domain was mitogenic”.

Consider “uPA12-32: critical domain alone, residues 12-32 of the EGF-like domain of uPA (DCLNGGTCVSNKYFSNIHWCN; UniProt P00749 32-52, looked up, fragment)”, for which the Kd with uPAR (J. Biol Chem (1987), read-out: affinity for uPAR) is 0.04 µM. Also, the “affinity relative to intact ATF (fold less)” value with uPAR is recorded as “about 100 fold”.

The record behind these values is patent publication US5656726A, “Peptide inhibitors of urokinase receptor activity” (Chiron Corporation, priority 1995, dated 1997).
